In the NIST ThermoML archive (doi:10.1021/je800043a):
± gives the expanded uncertainty stated by the source.

Test: activity coefficient (dimensionless); of the first substance listed, at infinite dilution; xn = mol fraction of the nth substance listed
Details: Liquid, Chromatography, x1 = 0

Row | SMILES | activity coefficient (303.15 K) | activity coefficient (313.15 K) | activity coefficient (323.15 K) | activity coefficient (333.15 K) | activity coefficient (343.15 K) | activity coefficient (353.15 K) | activity coefficient (363.15 K)
1 | CCc1ccccc1 [ethylbenzene] + CCCCCCn1cc[n+](C)c1.O=S(=O)([O-])C(F)(F)F | 2.88 ± 0.3 | 2.94 ± 0.31 | 2.99 ± 0.31 | 3.04 ± 0.32 | 3.12 ± 0.33 | 3.21 ± 0.34 | 3.27 ± 0.34
2 | Cc1cccc(C)c1 [1,3-dimethylbenzene] + CCCCCCn1cc[n+](C)c1.O=S(=O)([O-])C(F)(F)F | 2.82 ± 0.3 | 2.88 ± 0.3 | 2.97 ± 0.31 | 3.03 ± 0.32 | 3.12 ± 0.33 | 3.19 ± 0.34 | 3.25 ± 0.34
3 | C1CCCCC1 [cyclohexane] + CCCCCCn1cc[n+](C)c1.O=S(=O)([O-])C(F)(F)F | 11 ± 1.1 | 10.9 ± 1.1 | 10.8 ± 1.1 | 10.7 ± 1.1 | 10.6 ± 1.1 | 10.5 ± 1.1 | 10.5 ± 1.1
4 | Cc1ccccc1C [1,2-dimethylbenzene] + CCCCCCn1cc[n+](C)c1.O=S(=O)([O-])C(F)(F)F | 2.39 ± 0.25 | 2.47 ± 0.26 | 2.56 ± 0.27 | 2.64 ± 0.28 | 2.67 ± 0.28 | 2.72 ± 0.28 | 2.8 ± 0.29
5 | Cc1ccccc1 [toluene] + CCCCCCn1cc[n+](C)c1.O=S(=O)([O-])C(F)(F)F | 1.98 ± 0.21 | 2.03 ± 0.21 | 2.06 ± 0.22 | 2.14 ± 0.23 | 2.2 ± 0.23 | 2.25 ± 0.24 | 2.27 ± 0.24
6 | CCCCCC [hexane] + CCCCCCn1cc[n+](C)c1.O=S(=O)([O-])C(F)(F)F | 21.3 ± 2.2 | 21.2 ± 2.2 | 21.1 ± 2.2 | 20.9 ± 2.2 | 20.8 ± 2.2 | 20.7 ± 2.2 | 20.5 ± 2.2
7 | c1ccccc1 [benzene] + CCCCCCn1cc[n+](C)c1.O=S(=O)([O-])C(F)(F)F | 1.43 ± 0.15 | 1.48 ± 0.15 | 1.5 ± 0.16 | 1.55 ± 0.16 | 1.6 ± 0.2 | 1.64 ± 0.17 | 1.65 ± 0.17
8 | CCCCC [pentane] + CCCCCCn1cc[n+](C)c1.O=S(=O)([O-])C(F)(F)F | 14.8 ± 1.6 | 14.6 ± 1.5 | 14.5 ± 1.5 | 14.3 ± 1.5 | 14.1 ± 1.5 | 14 ± 1.5 | 13.9 ± 1.5
9 | Cc1ccc(C)cc1 [1,4-dimethylbenzene] + CCCCCCn1cc[n+](C)c1.O=S(=O)([O-])C(F)(F)F | 2.76 ± 0.29 | 2.84 ± 0.3 | 2.91 ± 0.3 | 2.97 ± 0.31 | 3.08 ± 0.32 | 3.16 ± 0.33 | 3.22 ± 0.34
10 | CCCCCCCCC [nonane] + CCCCCCn1cc[n+](C)c1.O=S(=O)([O-])C(F)(F)F | 45.4 ± 4.8 | 44.6 ± 4.7 | 43.7 ± 4.6 | 42.3 ± 4.5 | 41.8 ± 4.4 | 40.3 ± 4.2 | 39.9 ± 4.2
11 | C=Cc1ccccc1 [styrene] + CCCCCCn1cc[n+](C)c1.O=S(=O)([O-])C(F)(F)F | 1.7 ± 0.2 | 1.73 ± 0.18 | 1.76 ± 0.18 | 1.81 ± 0.19 | 1.84 ± 0.19 | 1.85 ± 0.19 | 1.88 ± 0.2
12 | CC(C)CC(C)(C)C [2,2,4-trimethylpentane] + CCCCCCn1cc[n+](C)c1.O=S(=O)([O-])C(F)(F)F | 27.5 ± 2.9 | 26.9 ± 2.8 | 26.7 ± 2.8 | 26.3 ± 2.8 | 25.9 ± 2.7 | 25.7 ± 2.7 | 25.4 ± 2.7
13 | C1=CCCCC1 [cyclohexene] + CCCCCCn1cc[n+](C)c1.O=S(=O)([O-])C(F)(F)F | 6.12 ± 0.64 | 6.2 ± 0.65 | 6.26 ± 0.66 | 6.37 ± 0.67 | 6.43 ± 0.68 | 6.5 ± 0.68 | 6.55 ± 0.69
14 | CC1CCCCC1 [methylcyclohexane] + CCCCCCn1cc[n+](C)c1.O=S(=O)([O-])C(F)(F)F | 14.1 ± 1.5 | 14 ± 2 | 13.9 ± 1.5 | 13.8 ± 1.4 | 13.7 ± 1.4 | 13.6 ± 1.4 | 13.5 ± 1.4
15 | CCCCCCCC [octane] + CCCCCCn1cc[n+](C)c1.O=S(=O)([O-])C(F)(F)F | 35 ± 3.7 | 34.5 ± 3.6 | 33.9 ± 3.6 | 33.4 ± 3.5 | 33.1 ± 3.5 | 32.7 ± 3.4 | 32 ± 3.4
16 | CCCCCCCCCC [decane] + CCCCCCn1cc[n+](C)c1.O=S(=O)([O-])C(F)(F)F | 457 ± 48 | 357 ± 38 | 279 ± 29 | 227 ± 24 | 184 ± 19 | 148 ± 16 | 112 ± 12
17 | CCCCCCC [heptane] + CCCCCCn1cc[n+](C)c1.O=S(=O)([O-])C(F)(F)F | 26.9 ± 2.8 | 26.7 ± 2.8 | 26.6 ± 2.8 | 26.5 ± 2.8 | 26.4 ± 2.8 | 26.3 ± 2.8 | 26.1 ± 2.7
